One experiment concerns KB/VJ300. Put plainly: Reversal of multidrug-resistance in vincristine-resistant human KB/VJ300 cells in presence of 0.1 ug/ml vincristine. In kind it is functional, cell-based.
Experiment [1] is described as follows: Cytotoxicity in vincristine-resistant human KB/VJ300 cells in presence of 0.1 ug/ml vincristine. Format: cell-based.
Another experiment has as its system KB. Put plainly: Cytotoxicity against vincristine-sensitive human KB cells in presence of 0.1 ug/ml vincristine. Format: cell-based.

Our source for the IC50 values is ChEMBL document CHEMBL1799972, “Grandilodines A-C, biologically active indole alkaloids from Kopsia grandifolia” (J Nat Prod, 2011).

As usually defined, the IC50 is the concentration needed to halve the response being measured.

A value given as a limit tells only on which side of the number the result lay.

In the case of `COC(=O)[C@@H]1C[C@]23CCCN2CC[C@]2(C(=O)OC)c4ccccc4N(C(=O)OC)[C@]12CC3` [GRANDILODINE A], the IC50 in the experiment with KB/VJ300 was found to be 4.35 µg/mL.

For the molecule `COC(=O)N1c2ccccc2[C@]23CCN4C(=O)C=C[C@]45CC[C@]12[C@@H](C5)C(=O)O3` [GRANDILODINE C], in the experiment on KB/VJ300, the IC50 turned out to be 4.11 µg/mL.

Take `COC(=O)N1c2ccccc2[C@]23CCN4CC=C[C@]45CC[C@]12[C@@H](C5)C(=O)O3` [LAPIDILECTINE B]: the IC50 in the experiment with KB/VJ300 was 0.39 µg/mL. Consider `CC[C@]1(O)C[C@H]2CN(CCc3c([nH]c4ccccc34)[C@@](C(=O)OC)(c3cc4c(cc3OC)N(C=O)[C@H]3[C@@](O)(C(=O)OC)[C@H](OC(C)=O)[C@]5(CC)C=CCN6CC[C@]43[C@@H]65)C2)C1` [VINCRISTINE], for which the IC50 (in experiment [1]; in the experiment with KB) was greater than 25 µg/mL each time.
